Test results as given in ChEMBL document CHEMBL5252590, “Structure-based design of novel melanin-concentrating hormone receptor-1 ligands based on saturated nitrogen-containing heterocycles” (Bioorg Med Chem Lett, 2023).

Assay: Displacement of [125I]MCH from MCHR1 expressed in CHO cell membranes assessed as inhibition constant; call rule not given here
Design: species or system Cricetulus griseus, Membrane

Compound | Ki (read-out: Ki) [µM] | Ki
COc1cc(NC(=O)CC2CCCN(Cc3ccc4ccccc4c3)C2)cc(OC)c1 (configuration not stated) | 1.69 | 
O=C(c1ccc(-c2ccccc2)cc1)N1CCCC12CCCN(Cc1ccc3ccccc3c1)C2 (configuration not stated) |  | Not Active
COc1cc(OC)cc(C(=O)N2CCC3(CCCN(Cc4ccc5ccccc5c4)C3)C2)c1 (configuration not stated) | 0.33 | 
O=C(N[C@@H]1CCN(Cc2ccc3ccccc3c2)C1)c1ccc(-c2ccc(C(F)(F)F)cc2)s1 | 3.08 | 
Cc1ccc2c(C)c(C(=O)N[C@@H]3CCN(Cc4ccc5ccccc5c4)C3)oc2c1 | 2.64 | 
O=C(COc1ccc(Cl)cc1)N1CCCC12CCCN(Cc1ccc3ccccc3c1)C2 (configuration not stated) | 2.61 | 
O=C(c1ccc(F)c(Cl)c1)N1CCC2(CCCN(Cc3ccc4c(c3)OCO4)C2)C1 (configuration not stated) | 2.5 | 
O=C(N[C@@H]1CCN(Cc2ccc3ccccc3c2)C1)c1ccc(F)c(F)c1 | 0.208 | 
O=C(N[C@@H]1CCN(Cc2ccc3ccccc3c2)C1)c1ccc(Br)cc1 | 0.103 | 
COc1cc(OC)cc(C(=O)N[C@@H]2CCN(Cc3ccc4c(c3)OCO4)C2)c1 | 0.0618 | 
O=C(N[C@@H]1CCN(Cc2ccc3ccccc3c2)C1)c1ccc(F)c(Cl)c1 | 0.136 | 
COc1cc(OC)cc(C(=O)N[C@@H]2CCN(C/C=C/c3ccccc3)C2)c1 | 0.017 | 
O=C(COc1ccc(Cl)cc1)N[C@@H]1CCN(Cc2ccc3ccccc3c2)C1 | 0.271 | 
O=C(COc1ccc(Cl)cc1)N1CCC2(CCCN(Cc3ccc4c(c3)OCO4)C2)C1 (configuration not stated) | 2.56 | 
O=C(N[C@@H]1CCN(Cc2ccc3ccccc3c2)C1)c1ccc(-c2ccc(F)cc2)cc1 | 1.84 | 
COc1cc(OC)cc(C(=O)NC[C@H]2CCN(Cc3ccc4ccccc4c3)C2)c1 | 0.105 | 
COc1cc(OC)cc(C(=O)N[C@@H]2CCN(Cc3ccc4ccccc4c3)C2)c1 | 0.007 | 
COc1cccc(-c2ccc(C(=O)N[C@@H]3CCN(Cc4ccc5ccccc5c4)C3)cc2)c1 | 4.19 | 
O=C(N[C@@H]1CCN(Cc2ccc3ccccc3c2)C1)c1ccc(Br)s1 | 0.202 | 
O=C(c1ccc(F)c(F)c1)N1CCC2(CCCN(Cc3ccc4ccccc4c3)C2)C1 (configuration not stated) | 1.9 | 
O=C(/C=C/c1ccc(F)cc1)N[C@@H]1CCN(Cc2ccc3ccccc3c2)C1 | 0.936 | 
O=C(N[C@@H]1CCN(Cc2ccc3ccccc3c2)C1)c1ccccc1 | 0.448 | 
